Among the data in patent US9060519B2, “Insecticidally active pyridyl-thiazole and pyridyl-thiadiazole derivatives” (Syngenta Participations AG, priority 2011, dated 2015) are melting point, pest or weed control and activity values, retold here.

Series [1] deals with Myzus persicae (green peach aphid). As to the kind of experiment: Activity against Myzus persicae (mixed population, feeding/residual contact activity, preventive). The class given is in vivo. The following applies: foliar, 144 h, sunflower leaf discs sprayed, aphids of mixed ages, mortality after 6 days. The protocol: Activity against Myzus persicae (Green Peach Aphid)
(Mixed Population, Feeding/Residual Contact Activity, Preventive)
Sunflower leaf discs were placed on agar in a 24-well microtiter plate and sprayed with test solutions. After drying, the leaf discs were infested with an aphid population of mixed ages. After an incubation period of 6 days, samples were checked for mortality.

Series [2] concerns Plutella xylostella (diamond back moth). Nature of the series: Plutella xylostella (larvicide, feeding/residual contact activity, preventive). The class given is in vivo. The following applies: 200 ppm; artificial diet in MTP, L2 larvae; larval mortality, antifeedant, growth regulation after 5 days. As for the experimental part:
Plutella xylostella (Diamond Back Moth) (Larvicide, Feeding/Residual Contact Activity, Preventive) 24-well microtiter plate (MTP) with artificial diet was treated with test solutions by pipetting. After drying, the MTP's were infested with larvae (L2)(10-15 per well). After an incubation period of 5 days, samples were checked for larval mortality, antifeedant and growth regulation.

A word on the melting point: it is the temperature of the solid-liquid transition. For `C/C(=N\Oc1ccc2nnc(C)n2n1)c1sc(-c2cccnc2)nc1C` [Compound 1.001], the melting point lay in the range of 200 to 202 °C.
The same measure, in the same setting: as for `C#CCOc1ccc(O/N=C(\C)c2sc(-c3cccnc3)nc2C)nn1` [Compound 1.002], the figure is 152 to 154 °C.
In turn, `COc1ccc(Cl)c(-c2ccc(O/N=C(\C)c3sc(-c4cccnc4)nc3C)nn2)c1` [Compound 1.003] had a melting point of 169 to 171 °C.
As to `C/C(=N\Oc1ccc(C)nn1)c1sc(-c2cccnc2)nc1C` [Compound 1.004], the melting point is 179 to 181 °C.
On the same count and under the same terms, as for `COc1ccc(O/N=C(\C)c2sc(-c3cccnc3)nc2C)nn1` [Compound 1.005], the figure is 167 to 169 °C; as for `C/C(=N\Oc1ncccc1Cl)c1sc(-c2cccnc2)nc1C` [Compound 1.007], 126 to 128 °C.
Broadly, the pest or weed control is the degree to which the test organism was suppressed or injured, in per cent. On to `C/C(=N\Oc1cc(Cl)cnc1Cl)c1sc(-c2cccnc2)nc1C` [Compound 1.008], for which the pest or weed control at 200 ppm in series [1] was more than 80%.
Compound `COc1cc(OC)nc(O/N=C(\C)c2sc(-c3cccnc3)nc2C)n1` [Compound 1.009] displayed a pest or weed control at 200 ppm in series [1] of more than 80%.
Turning to `C/C(=N\Oc1nc(C)cc(C)n1)c1sc(-c2cccnc2)nc1C` [Compound 1.010], the pest or weed control at 200 ppm in series [1] is more than 80%.
As for `C/C(=N\Oc1ccc(C#N)cn1)c1sc(-c2cccnc2)nc1C` [Compound 1.012], the activity result in series [2] is given as “over 80%”.
Consider `C/C(=N\Oc1ncccn1)c1sc(-c2cccnc2)nc1C` [Compound 1.013], for which, in series [1], the pest or weed control at 200 ppm was more than 80%.
The compound `COc1cnc(O/N=C(\C)c2sc(-c3cccnc3)nc2C)nc1` [Compound 1.014] yielded a pest or weed control at 200 ppm in series [1] of more than 80%.
Take `C/C(=N\Oc1ncc(C(F)(F)F)cn1)c1sc(-c2cccnc2)nc1C` [Compound 1.015]: the melting point fell in the range of 165 to 166 °C.
The same measure, in the same setting: as for `C/C(=N\Oc1ncc([N+](=O)[O-])cn1)c1sc(-c2cccnc2)nc1C` [Compound 1.018], the figure is 174 to 176 °C.
As to `C/C(=N\Oc1nccc(C)n1)c1sc(-c2cccnc2)nc1C` [Compound 1.029], the pest or weed control at 200 ppm in series [1] was more than 80%.
As for `COCc1cc(C)nc(O/N=C(\C)c2sc(-c3cccnc3)nc2C)n1` [Compound 1.032], the pest or weed control at 200 ppm in series [1] was more than 80%.
Still for that read-out and setting: as for `C/C(=N\Oc1ncccn1)c1cnc(-c2cccnc2)s1` [Compound 1.041, 1-[2-(3-pyridyl)thiazol-5-yl]-N-pyrimidin-2-yloxy-ethanimine], the figure is more than 80%.
`COc1cc(OC)nc(O/N=C(/c2sc(-c3cccnc3)nc2Cl)C(F)(F)F)n1` [Compound 1.043] displayed a melting point of 109 to 111 °C.
Consider `Clc1nc(-c2cccnc2)sc1/C(=N/Oc1ncccn1)C1CC1` [Compound 1.044], for which the melting point fell in the range of 127 to 130 °C.
On to `Cc1cc(C)nc(O/N=C(/c2sc(-c3cccnc3)nc2Cl)C2CC2)n1` [Compound 1.045], for which the melting point was 53 to 55 °C.
In series [1], `CC/C(=N\Oc1nc(C)cc(C)n1)c1sc(-c2cccnc2)nc1Cl` [Compound 1.047] yielded a pest or weed control at 200 ppm of more than 80%.
The same measure, in the same setting: as for `CC/C(=N\Oc1ncccn1)c1sc(-c2cccnc2)nc1Cl` [Compound 1.048], the figure is more than 80%.
Consider `CC/C(=N\Oc1nc(OC)cc(OC)n1)c1sc(-c2cccnc2)nc1Cl` [Compound 1.049], for which the pest or weed control at 200 ppm in series [1] is more than 80%.
On the same count and under the same terms, as for `C/C(=N\Oc1ncccn1)c1sc(-c2cccnc2)nc1Cl` [Compound 1.050], the figure is more than 80%.
Turning to `CSc1cc(F)cnc1O/N=C(\C)c1sc(-c2cccnc2)nc1C` [Compound 1.055], the melting point is 149 to 151 °C.
For `C/C(=N\Oc1ncccc1SC(C)C)c1sc(-c2cccnc2)nc1C` [Compound 1.056], in series [1], the pest or weed control at 200 ppm was more than 80%.
In series [1], `C/C(=N\Oc1nc(C)cc(C)n1)c1sc(-c2cccnc2)nc1Cl` [Compound 1.057] showed a pest or weed control at 200 ppm of more than 80%.
Same read-out and setting: as for `COc1cc(OC)nc(O/N=C(\C)c2sc(-c3cccnc3)nc2Cl)n1` [Compound 1.058, 1-[4-chloro-2-(3-pyridyl)thiazol-5-yl]-N-(4,6-dimethoxypyrimidin-2-yl)oxy-ethanimine], the figure is more than 80%; as for `COc1nc(OC)nc(O/N=C(\C)c2sc(-c3cccnc3)nc2C)n1` [Compound 1.060], more than 80%.
